Data taken from patent US9873702B2, “Heterocyclic compounds as biogenic amine transport modulators” (Southern Research Institute, priority 2014, dated 2018).
Read-outs that look alike come from different tables or passages of the source.

What was measured:
[1] = molecular target: T1, dopamine transporter (DAT) (Rattus norvegicus, UniProt P23977); assay: Dopamine reuptake ([^3H]dopamine uptake) inhibition in rat brain synaptosomes
[2] = molecular target: T1, dopamine transporter (DAT); assay: Dopamine transporter-mediated [^3H]MPP^+ release, shift of D-amphetamine-induced release, rat caudate synaptosomes; format: biochemical; set-up: Freshly removed caudate was homogenized in 10% ice-cold sucrose; from tissue; host or cells: rat caudate synaptosomes; conditions: for Apparent Kc: [3H]MPP+ release, Apparent Kc = [Blocker]/((EC50-2/EC50-1) − 1), negative when shifted EC50 is less than control; for Kb: apparent Ke from shift of D-amphetamine-induced [^3H]MPP^+ release, compound at the concentration of column 1, read-out: Ke App
[3] = molecular target: norepinephrine transporter (NET) (Rattus norvegicus, UniProt Q9WTR4); assay: Norepinephrine reuptake ([^3H]norepinephrine uptake) inhibition in rat brain synaptosomes; conditions: for NE Uptake Emax (% I ± SD): maximal inhibition from dose-response fit
Procedure: Freshly removed whole brain minus cerebellum and caudate was homogenized in 10% ice-cold sucrose with 12 strokes of a hand-held Potter-Elvehjem homogenizer followed by centrifugation at 1000×g for 10 minutes. The supernatants were saved on ice and used immediately. Transporter activity at NET was assessed using 10 nM [^3H]norepinephrine. […] Uptake inhibition assays were conducted at 37° C. and were initiated by adding 100 μL of tissue to 900 μL assay buffer containing test drug and [^3H]norepinephrine. Test drugs were diluted in assay buffer containing 1 mg/mL bovine serum albumin. Nonspecific uptake was measured by incubating in the presence of 10 μM indatraline. The reactions were stopped after 10 minutes by rapid vacuum filtration with a cell harvester (BRANDEL) over GF/B filters (Whatman) presoaked in wash buffer maintained at 25° C. (10 mM Tris-HCl, pH 7.4/150 mM NaCl). Filters were rinsed with 6 mL wash buffer and retained tritium was quantified by a MicroBeta liquid scintillation counter (PerkinElmer) after overnight extraction in 0.6 mL of liquid scintillation cocktail (Cytoscint, ICN). The data from three experiments were pooled and fit to a dose-response curve equation (using Kaleidagraph), to yield an Emax and EC50 value.
The data from three experiments were pooled and fit to a dose-response curve equation (using KaleidaGraph; Synergy Software, Reading, Pa.) to yield an Emax and IC50 value.

[4] = molecular target: T2, serotonin transporter (SERT) (Rattus norvegicus, UniProt P31652); assay: Serotonin reuptake ([^3H]serotonin uptake) inhibition in rat brain synaptosomes; format: biochemical
T2 construct: Freshly removed whole brain minus cerebellum and caudate was homogenized; from tissue; host or cells: rat whole brain minus cerebellum and caudate, synaptosomes

DAT = molecular target: T3, DAT (Rattus norvegicus, UniProt P23977); assay: Dopamine transporter binding, inhibition of [^3H]WIN35428 binding in rat caudate membranes; conditions: for EC50: read-out: WIN Binding EC50 (μM ± SD)
T3 construct: from tissue; host or cells: rat caudate membranes
Procedure: The ability of test drugs to inhibit [^3H]WIN35428 binding to DAT in rat caudate membranes was assessed as follows. For each experiment, caudates from four rat brains were suspended in 15 mL ice cold assay buffer (50 mM sodium phosphate pH 7.4) and homogenized using a polytron (setting 6, 20 sec). The homogenate was centrifuged at 30,000×g for 10 minutes at 4° C. The pellet was resuspended with vigorous vortexing in 15 mL fresh ice cold assay buffer, and the centrifugation was repeated. The pellet was resuspended in 15 mL fresh ice cold assay buffer with vigorous vortexing followed by six strokes with a glass-on-glass hand-held homogenizer and was diluted to a final volume of 235 mL in ice cold assay buffer. [^3H]WIN35428 was diluted to 10 nM in assay buffer that contained 25 μg/mL chymostatin, 25 μg/mL leupeptin, 0.1 mM EDTA, and 0.1 mM EGTA. Each assay tube contained 0.75 mL membrane preparation, 0.15 mL test drug diluted in assay buffer containing 1 mg/mL bovine serum albumin, and 0.1 mL [^3H]WIN35428 preparation (final concentration of 1 nM). Assays were initiated by the addition of membranes and were terminated after 2 hours at 25° C. by rapid vacuum filtration. Retained tritium was measured as described. The data from three experiments were pooled and fit to a dose-response curve equation (using Kaleidagraph), to yield an Emax and EC50 value.

[5] = DAT Uptake IC50, [3H]DA uptake inhibition, mean ± S.D., n = 3
[6] = IC50 for DAT Uptake Inhibition, rounded value as listed in Table 10
[7] = read-out: Emax for DAT Uptake Inhibition
[8] = read-out: NET Uptake IC50, mean ± S.D., n = 3
[9] = mean ± S.D., n = 3, read-out: SERT Uptake IC50
[10] = 2 h, read-out: DAT Binding εmax
[11] = rat brain synaptosomes, 10 nM [^3H]norepinephrine
[12] = read-out: NE Uptake EC50 (nM ± SD), rat brain synaptosomes, 10 nM [^3H]norepinephrine, 10 min, 37° C.
[13] = mean ± S.D., n = 3, read-out: SERT Uptake Emax

T3 sequence (P23977 whole entry): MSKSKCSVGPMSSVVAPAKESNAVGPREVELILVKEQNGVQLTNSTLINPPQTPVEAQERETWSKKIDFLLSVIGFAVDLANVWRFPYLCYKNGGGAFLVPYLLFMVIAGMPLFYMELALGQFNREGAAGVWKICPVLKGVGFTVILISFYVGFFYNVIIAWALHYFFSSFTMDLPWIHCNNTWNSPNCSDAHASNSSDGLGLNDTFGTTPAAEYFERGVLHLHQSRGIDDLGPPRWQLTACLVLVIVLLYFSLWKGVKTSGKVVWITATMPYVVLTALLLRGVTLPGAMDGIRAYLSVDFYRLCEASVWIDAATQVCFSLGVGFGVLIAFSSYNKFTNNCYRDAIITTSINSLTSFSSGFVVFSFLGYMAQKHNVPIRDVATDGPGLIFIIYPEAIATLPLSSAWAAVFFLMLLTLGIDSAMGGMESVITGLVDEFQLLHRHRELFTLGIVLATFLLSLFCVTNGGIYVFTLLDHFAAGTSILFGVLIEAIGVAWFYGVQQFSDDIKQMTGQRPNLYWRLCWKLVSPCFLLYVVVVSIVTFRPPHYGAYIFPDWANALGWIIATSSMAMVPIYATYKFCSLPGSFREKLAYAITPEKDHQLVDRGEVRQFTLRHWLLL
T1 sequence (P23977 whole entry): as above
T2 sequence (P31652 whole entry): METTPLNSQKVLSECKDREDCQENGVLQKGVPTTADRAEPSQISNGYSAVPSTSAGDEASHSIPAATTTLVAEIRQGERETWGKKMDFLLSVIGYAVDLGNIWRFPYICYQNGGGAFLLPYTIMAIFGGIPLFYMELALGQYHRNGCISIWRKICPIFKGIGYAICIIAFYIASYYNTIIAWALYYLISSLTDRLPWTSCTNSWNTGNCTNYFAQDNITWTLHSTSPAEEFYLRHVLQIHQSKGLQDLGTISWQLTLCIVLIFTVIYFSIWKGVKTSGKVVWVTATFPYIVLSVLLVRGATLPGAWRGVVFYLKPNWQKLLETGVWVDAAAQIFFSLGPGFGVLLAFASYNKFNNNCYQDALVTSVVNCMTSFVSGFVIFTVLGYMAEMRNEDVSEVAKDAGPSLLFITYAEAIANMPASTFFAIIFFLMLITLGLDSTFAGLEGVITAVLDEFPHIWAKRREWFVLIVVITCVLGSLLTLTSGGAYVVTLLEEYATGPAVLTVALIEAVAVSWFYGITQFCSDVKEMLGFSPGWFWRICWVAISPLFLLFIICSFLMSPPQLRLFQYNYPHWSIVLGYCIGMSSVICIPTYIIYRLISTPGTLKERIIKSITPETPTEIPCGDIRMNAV

| SMILES | IC50 [1, 5] [nM] | NET Uptake Emax ([3]; mean ± S.D., n = 3) [%] | IC50 [3, 8] [nM] | IC50 [4, 9] [nM] | Emax (DAT; [10]) [%] | NE Uptake Emax (% I ± SD) [3, 11] [% I] | IC50 [3, 12] [nM] | Emax ([1]; read-out: DAT Uptake Emax) [%] | Emax [4, 13] [%] | further results |
| --- | --- | --- | --- | --- | --- | --- | --- | --- | --- | --- |
| CS(=O)(=O)Nc1ccc(-c2nc(NCC(c3ccccc3)c3ccccc3)c3ccccc3n2)cc1 [SRI-29577] | 4.4 ± 0.8 | 71 ± 2 | 90 ± 15 | 20 ± 5 | 65 ± 6 | – | – | – | – | IC50 [1, 6]: 4 nM; Emax [1, 7]: 70%; Apparent Kc [2]: -553 nM |
| CN(C)c1ccc(-c2nc(NCC(c3ccccc3)c3ccccc3)c3ccccc3n2)cc1 [SRI-29786] | 7.1 ± 2.2 | 68 ± 7 | 143 ± 61 | 49 ± 27 | 100 ± 3 | – | – | – | – | IC50 [1, 6]: 7 nM; Emax [1, 7]: 70%; Apparent Kc [2]: 1940 nM |
| CN(C)c1ncc(-c2nc(NC(c3ccccc3)c3ccccc3)c3ccccc3n2)cn1 [compound 12, N-Benzhydryl-2-(2-(dimethylamino)pyrimidin-5-yl)quinazolin-4-amine] | – | – | – | – | – | 64 ± 10 | 1740 ± 1150 | – | – | IC50 ([1]; DA Uptake EC50 (nM ± SD), rat caudate synaptosomes, 5 nM [^3H]dopamine, 15 min, 25° C., three experiments pooled): 174 ± 58 nM; Emax ([1]; read-out: DA Uptake Emax (% I ± SD)): 66 ± 4%; D-Amphetamine Emax (% ± SD) ([2]; Emax of D-amphetamine for [^3H]MPP^+ release in presence of 5000 nM test compound): 98 ± 1%; Kb [2]: 7050 nM; IC50 ([4]; rat brain synaptosomes, 5 nM [^3H]serotonin, 30 min, 25° C., read-out: 5HT Uptake EC50 (nM ± SD)): 699 ± 164 nM; Emax ([4]; rat brain synaptosomes, 5 nM [^3H]serotonin, maximal inhibition from dose-response fit, read-out: 5HT Uptake Emax (% I ± SD)): 48 ± 3%; EC50 (DAT): 1.8 ± 0.4 µM; Emax (DAT; read-out: WIN Binding Emax (% I ± SD)): 71 ± 4% |
| CN(C)c1ncc(-c2nc(NCCC(c3ccccc3)c3ccccc3)c3ccccc3n2)cn1 [compound 20, N-(3,3-Diphenylpropyl)-2-(2-(Dimethylamino)Pyrimidin-5-yl)Quinazolin-4-Amine] | – | – | – | – | – | 64 ± 5 | 8130 ± 2270 | – | – | D-Amphetamine Emax (% ± SD) ([2]; Emax of D-amphetamine for [^3H]MPP^+ release in presence of 12500 nM test compound): 103 ± 2%; Kb [2]: 64600 nM; EC50 (DAT): 2.2 ± 0.5 µM |
| c1ccc(C(CCNc2nc(-c3ccc4[nH]ccc4c3)nc3ccccc23)c2ccccc2)cc1 [compound 21, N-(3,3-Diphenylpropyl)-2-(1H-Indol-5-yl)Quinazolin-4-Amine] | – | – | – | – | – | 77 ± 3 | 346 ± 59 | – | – | D-Amphetamine Emax (% ± SD) ([2]; Emax of D-amphetamine for [^3H]MPP^+ release in presence of 500 nM test compound): 78 ± 2%; Kb [2]: 886 nM; effect on the d-amphetamine Emax value, in words ([2]; d-amphetamine-induced DAT-mediated [^3H]MPP^+ release, blocking concentration ˜25 times IC50 for DAT uptake inhibition): no significant effect; EC50 (DAT): 0.2 µM |

Further lines, with some results ahead:

| IC50 [1, 5] [nM] | NET Uptake Emax ([3]; mean ± S.D., n = 3) [%] | IC50 [3, 8] [nM] | IC50 [4, 9] [nM] | Emax (DAT; [10]) [%] | NE Uptake Emax (% I ± SD) [3, 11] [% I] | IC50 [3, 12] [nM] | Emax ([1]; read-out: DAT Uptake Emax) [%] | Emax [4, 13] [%] | SMILES | further results |
| --- | --- | --- | --- | --- | --- | --- | --- | --- | --- | --- |
| 11 ± 1 | 78 ± 2 | 179 ± 27 | 57 ± 18 | 59 ± 6 | 78 ± 2 | 179 ± 27 | 71 ± 1 | 60 ± 3 | CNc1ncc(-c2nc(NCC(c3ccccc3)c3ccccc3)c3ccccc3n2)cn1 [compound 41, N-(2,2-Diphenylethyl)-2-(2-(Methylamino)Pyrimidin-5-yl)Quinazolin-4-Amine] | – |
| 19 ± 4 | 71 ± 3 | 229 ± 43 | 106 ± 19 | 58 ± 3 | 71 ± 3 | 229 ± 43 | 69 ± 2 | 61 ± 2 | Cn1cc2cc(-c3nc(NCC(c4ccccc4)c4ccccc4)c4ccccc4n3)ccc2n1 [compound 66, N-(2,2-Diphenylethyl)-2-(2-Methyl-2H-Indazol-5-yl)Quinazolin-4-Amine] | – |
| 13 ± 2 | 71 ± 2 | 259 ± 41 | 54 ± 7 | 47 ± 6 | 71 ± 2 | 259 ± 41 | 73 ± 2 | 51 ± 1 | CN(C)c1ncc(-c2nc(NCC(O)(c3ccccc3)c3ccccc3)c3ccccc3n2)cn1 [compound 80, 2-((2-(2-(Dimethylamino)Pyrimidin-5-yl)Quinazolin-4-yl)Amino)-1,1-Diphenylethanol] | – |
| 11 ± 2 | 73 ± 6 | 203 ± 79 | 35 ± 9 | 55 ± 3 | 73 ± 6 | 203 ± 79 | 70 ± 2 | 57 ± 2 | OC(CNc1nc(-c2ccc3[nH]ccc3c2)nc2ccccc12)(c1ccccc1)c1ccccc1 [compound 81, 2-((2-(1H-Indol-5-yl)Quinazolin-4-yl)Amino)-1,1-Diphenylethanol] | – |
| 18 ± 3 | 77 ± 2 | 132 ± 16 | 28 ± 6 | 62 ± 7 | 77 ± 2 | 132 ± 16 | 71 ± 2 | 54 ± 2 | c1ccc(C(CNc2nc(-c3cnc4nccn4c3)nc3ccccc23)c2ccccn2)cc1 (stereo not shown) [compound 98, 2-(Imidazo[1,2-A]Pyrimidin-6-yl)-N-(2-Phenyl-2-(Pyridin-2-yl)Ethyl)Quinazolin-4-Amine] | – |
| 9.3 ± 1.1 | 76 ± 9 | 69 ± 18 | 3.9 ± 0.4 | 34 ± 3 | 76 ± 3 | 69 ± 18 | 65 ± 1 | 56 ± 1 | OC(CNc1nc(-c2cnc3nccn3c2)nc2ccccc12)(c1ccccc1)c1ccccc1 [compound 99, 2-((2-(Imidazo[1,2-A]Pyrimidin-6-yl)Quinazolin-4-yl)Amino)-1,1-Diphenylethanol] | – |
| 12 ± 2 | 65 ± 4 | 153 ± 55 | 83 ± 28 | 50 ± 4 | 65 ± 4 | 153 ± 55 | 72 ± 2 | 59 ± 4 | c1ccc(C(CNc2nc(-c3ccc4nccn4c3)nc3ccccc23)C2CCCCC2)cc1 (stereo not shown) [compound 100, N-(2-Cyclohexyl-2-Phenylethyl)-2-(Imidazo[1,2-A]Pyridin-6-yl)Quinazolin-4-Amine] | – |
| 21 ± 3 | 75 ± 3 | 78 ± 17 | 35 ± 11 | 44 ± 3 | 75 ± 3 | 78 ± 17 | 70 ± 2 | 59 ± 3 | c1ccc(C(CNc2nc(-c3ccc4nccn4c3)nc3ccccc23)c2cccnc2)cc1 (stereo not shown) [compound 131, 2-(Imidazo[1,2-A]Pyridin-6-yl)-N-(2-Phenyl-2-(Pyridin-3-yl)Ethyl)Quinazolin-4-Amine] | – |
